pIC50, pKi: −log10 of the molar value. A value given as a limit tells only on which side of the number the result lay.

The values below come from ChEMBL document CHEMBL4325911, “Discovery of N-(piperidin-3-yl)-N-(pyridin-2-yl)piperidine/piperazine-1-carboxamides as small molecule inhibitors of PCSK9” (Bioorg Med Chem Lett, 2018).

A short description of series [1]: Lipophilicity, log D of the compound by shake flask method. Particulars: octanol/water. In kind it is physicochemical.
Series [2] is described as follows: Permeability in RRCK cells measured up to 1.5 hrs. The series is classed as ADME, cell-based, Canis lupus familiaris, MDCKII-LE. As to conditions: dog, MDCK; read-out: permeability.
The target in series [3] is 80S Ribosome. The experiment in a line: Binding affinity to 80S ribosome in human HuH7 cells harboring human PCSK9 (1 to 152 residues)-proLuc assessed as inhibition of PCSK9 mRNA translation after overnight incubation by luciferase reporter gene assay. Particulars: huh-7. In kind it is cell-based.
Series [4] can be described thus: Intrinsic clearance in human liver microsomes. As to conditions: read-out: CLH. In kind it is ADME, Microsome. In general terms: Liver microsomes are a subcellular fraction often used to study metabolism.
In series [5] the target is Voltage-gated inwardly rectifying potassium channel KCNH2 (Homo sapiens, UniProt Q12809). In words: Binding affinity to human ERG by dofetilide fluorescence polarization binding assay. For orientation: In fluorescence polarisation assays a small probe gives low polarisation when free and higher when bound to something large.
Chain of Voltage-gated inwardly rectifying potassium channel KCNH2 (Q12809 whole entry): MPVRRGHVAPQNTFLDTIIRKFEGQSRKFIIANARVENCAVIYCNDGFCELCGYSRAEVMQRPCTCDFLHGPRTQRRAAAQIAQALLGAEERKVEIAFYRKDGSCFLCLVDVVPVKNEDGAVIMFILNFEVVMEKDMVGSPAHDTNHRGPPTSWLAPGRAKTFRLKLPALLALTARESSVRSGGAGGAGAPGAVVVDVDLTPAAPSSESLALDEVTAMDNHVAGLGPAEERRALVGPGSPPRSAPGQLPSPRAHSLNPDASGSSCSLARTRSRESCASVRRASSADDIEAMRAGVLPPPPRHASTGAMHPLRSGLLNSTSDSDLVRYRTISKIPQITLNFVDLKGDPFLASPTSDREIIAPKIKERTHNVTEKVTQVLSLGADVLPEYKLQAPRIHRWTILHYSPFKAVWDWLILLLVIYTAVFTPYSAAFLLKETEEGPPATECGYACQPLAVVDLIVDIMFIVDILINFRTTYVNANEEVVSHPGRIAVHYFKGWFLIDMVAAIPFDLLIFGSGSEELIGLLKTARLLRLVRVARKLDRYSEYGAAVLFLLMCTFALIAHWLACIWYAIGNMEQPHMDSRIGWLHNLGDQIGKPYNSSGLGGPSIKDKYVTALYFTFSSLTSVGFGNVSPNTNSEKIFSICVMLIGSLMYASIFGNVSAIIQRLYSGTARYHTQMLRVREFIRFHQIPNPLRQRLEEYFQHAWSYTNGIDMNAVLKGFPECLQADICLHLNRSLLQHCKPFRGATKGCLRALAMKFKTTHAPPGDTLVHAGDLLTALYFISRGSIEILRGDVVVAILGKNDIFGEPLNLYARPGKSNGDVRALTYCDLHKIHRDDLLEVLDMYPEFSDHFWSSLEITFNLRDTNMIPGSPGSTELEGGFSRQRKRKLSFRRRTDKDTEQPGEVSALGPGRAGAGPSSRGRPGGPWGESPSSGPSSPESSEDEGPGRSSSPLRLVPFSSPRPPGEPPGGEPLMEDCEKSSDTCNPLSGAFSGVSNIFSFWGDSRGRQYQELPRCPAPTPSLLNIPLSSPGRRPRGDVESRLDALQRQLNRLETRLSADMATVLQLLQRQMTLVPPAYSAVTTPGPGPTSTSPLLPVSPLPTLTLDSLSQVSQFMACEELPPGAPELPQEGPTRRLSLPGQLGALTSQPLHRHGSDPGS
The subject of another series is Bone marrow cell. The experiment in a line: Cytotoxicity against rat bone marrow cells assessed as reduction in cell viability after 72 hrs by celltiter glo assay. The series is classed as cell-based. In general terms: Cellular ATP, detected with luciferase, serves as a proxy for viable cell number.
The target of series [6] is 80S Ribosome. In words: Binding affinity to 80S ribosome in human HeLa cells lysates using human full length PCSK9 encoding mRNAs assessed as inhibition of PCSK9 mRNA translation after 45 mins by Steady-Glo luciferase reporter gene assay. In kind it is cell-free.

As a reminder, the logD is lipophilicity at a set pH, counting ionised and neutral species. A low value points to lower lipophilicity. A word on the pIC50: it is −log10 of the IC50, conventionally taken in molar units. The pKi is −log10 of the Ki, conventionally taken in molar units. Higher therefore signals a low Ki. With `Cc1ccc2c(N3CCN(C(=O)N(c4nccc5ccccc45)[C@@H]4CCCNC4)CC3)noc2c1`, in series [1], the pH-dependent lipophilicity (logD) came to 1.6. Further, the Papp at 1.5 h in series [2] came to 8.9 ×10⁻⁶ cm/s. In addition, the pIC50 at 80S Ribosome [3] was 5.46; in the series with Bone marrow cell, 4.51. In series [4], the microsomal CLint came to 12.9 µL/min/mg. Also, the pKi in series [5] was 5.92.
Take `O=C(N1CCN(c2ccccc2)CC1)N(c1nccc2ccccc12)[C@@H]1CCCNC1`: in series [1], the logD came out at 0.8. Moreover, the Papp at 1.5 h in series [2] turned out to be 5.8 ×10⁻⁶ cm/s. Besides, the negative logarithm of the IC50 (pIC50) at 80S Ribosome [3] is 4.90. In addition, in series [4], the microsomal CLint is 13.8 µL/min/mg. The compound further had a negative-log Ki (pKi) in series [5] of 5.04.
On to `O=C(N1CCC(c2ccccc2)CC1)N(c1ncccc1Cl)[C@@H]1CCCNC1`, for which the logD in series [1] was 0.9. Also, the negative logarithm of the IC50 (pIC50) at 80S Ribosome [6] is 5.68; on 80S Ribosome [3], 5.66. Also, the Papp at 1.5 h in series [2] was 12.8 ×10⁻⁶ cm/s. Besides, in series [4], the microsomal CLint was less than 9.3 µL/min/mg. For the same compound, the pKi in series [5] is 4.84.
For `COc1ccc(CCC(=O)N(c2nccc3ccccc23)[C@@H]2CCCNC2)cc1`, the logD in series [1] came to 1. For the same compound, at 80S Ribosome [6], the pIC50 was 5.09.
For `Cc1cccnc1N(C(=O)N1CCC(c2ccccc2)CC1)[C@@H]1CCCNC1`, the logD in series [1] worked out at 0.7. The negative-log IC50 (pIC50) at 80S Ribosome [6] was 5.63; on 80S Ribosome [3], 5.69. The Papp at 1.5 h in series [2] came out at 8.7 ×10⁻⁶ cm/s. Moreover, the microsomal CLint in series [4] is less than 8 µL/min/mg. Also, the pKi in series [5] is less than 4.60.
The compound `Cn1ccc2ccnc(N(C(=O)N3CCC(c4ccccc4)CC3)[C@@H]3CCCNC3)c21` returned a logD in series [1] of 1.4. The pIC50 is 6.30 on 80S Ribosome [6] and 4.93 in the series on Bone marrow cell. Also, in series [2], the Papp at 1.5 h is 5.2 ×10⁻⁶ cm/s. Besides, the microsomal CLint in series [4] was found to be 11.8 µL/min/mg. The same compound showed a negative logarithm of the Ki (pKi) in series [5] of 5.24.
Regarding `Cc1cccnc1N(C(=O)N1CCC(c2cnn3cccnc23)CC1)[C@@H]1CCCNC1`, the log distribution coefficient (logD) in series [1] was determined as 0.2. The negative-log IC50 (pIC50) on 80S Ribosome [6] was 6.04; in the series on Bone marrow cell, 5.00. Besides, the Papp at 1.5 h in series [2] was 1.8 ×10⁻⁶ cm/s. The microsomal CLint in series [4] is less than 8 µL/min/mg. Further, the pKi in series [5] is less than 4.40.
The compound `Cc1nccnc1N(C(=O)N1CCC(c2ccccc2)CC1)[C@@H]1CCCNC1` yielded a logD in series [1] of 0.3. For the same compound, the pIC50 was 5.44 on 80S Ribosome [6] and less than 4.00 with Bone marrow cell. Besides, the Papp at 1.5 h in series [2] was 11.5 ×10⁻⁶ cm/s. Moreover, the microsomal CLint in series [4] was less than 8 µL/min/mg. Moreover, the pKi in series [5] is 4.61.
For `Cc1cnc2c(c1)nnn2-c1ccc(CCC(=O)N(c2ncccc2Cl)[C@@H]2CCCNC2)nc1`, the logD in series [1] was determined as 0.7. Also, the figures for the pIC50 at 80S Ribosome [6], at 80S Ribosome [3] and with Bone marrow cell were 5.64, 6.07 and 4.57, respectively. Moreover, the Papp at 1.5 h in series [2] worked out at 6.2 ×10⁻⁶ cm/s. Also, in series [4], the microsomal CLint came to 9.3 µL/min/mg. The compound further showed a pKi in series [5] of 5.23.
`O=C(N1CCC(c2ccccc2)CC1)N(c1nccc2ccccc12)[C@@H]1CCCNC1` yielded a logD in series [1] of 1.4. Moreover, the pIC50 on 80S Ribosome [6] was 5.81; at 80S Ribosome [3], 5.76; in the series on Bone marrow cell it was 4.90. Also, in series [2], the Papp at 1.5 h was 3.9 ×10⁻⁶ cm/s. Moreover, the microsomal CLint in series [4] was determined as 13.9 µL/min/mg. In series [5], this compound had a negative-log Ki (pKi) of 5.39.
On to `Cc1cccnc1N(C(=O)N1CCC(c2ccccc2F)CC1)[C@@H]1CCCNC1`, for which, in series [1], the logD came to 1. Besides, the pIC50 was 5.36 on 80S Ribosome [6] and 4.34 in the series on Bone marrow cell. In addition, the Papp at 1.5 h in series [2] amounted to 9.5 ×10⁻⁶ cm/s. In addition, the microsomal CLint in series [4] was less than 8 µL/min/mg. In series [5], this compound gave a negative logarithm of the Ki (pKi) of 5.01.
`O=C(c1ccc(-c2ccccc2)cc1)N(c1nccc2ccccc12)[C@@H]1CCCNC1`: the Papp at 1.5 h in series [2] is 0.3 ×10⁻⁶ cm/s.
In series [1], `O=C(N1CCC(c2cnn3cccnc23)CC1)N(c1ncccc1Cl)[C@@H]1CCCNC1` came in with a log distribution coefficient (logD) of -0.5. The Papp at 1.5 h in series [2] came out at 1.8 ×10⁻⁶ cm/s. In addition, the pIC50 at 80S Ribosome [3] was less than 4.70. Also, the microsomal CLint in series [4] was less than 8 µL/min/mg.
